Patent US12714708B2, “Compounds with anti-tumor activity against cancer cells bearing HER2 exon 19 mutations” (Board of Regents, The University of Texas System, priority 2019, dated 2026)

Assays:
[1] = test system: Ba/F3 HER2 L755P mutant cells; assay: Cell Titer Glo cell viability, Ba/F3 cells expressing HER2 L755P; type: cell-based; conditions: for inhibition of cell viability: Ba/F3 cells expressing HER2 L755P protein; for IC50: Mus musculus, BaF3, Ba/F3 HER2 L755P mutant cells
Description: Ba/F3 cells expressing exon 19 point mutation L755P were generated.
Cell line generation and IL-3 deprivation: Ba/F3 cell line, was cultured in complete RPMI-1640 (R8758; Sigma Life Science) media supplemented with L-glutamine, 10% heat inactivated FBS (Gibco), 1% penicillin/streptomycin (Sigma Life Science), and 10 ng/ml mouse IL-3 (R&D systems) under sterile conditions. Stable cell lines were generated by retroviral transduction of Ba/F3 cell line for 12 hours. Retroviruses were generated by transfecting pBabe-Puro based vectors into the Phoenix 293T ampho packing cell line (Orbigen) using Lipofectamine 2000 (Invitrogen). 72 hours after transduction, 2 μg/ml puromycin (Invitrogen) was added to the media. After 5 days of selection, cells were stained with FITC-HER2 (Biolegend) and sorted via FACS. Cell lines were then grown in the absence of IL-3 for 15 days and cell viability was determined every 3 days using the Cell Titer Glo assay (Progema). Resulting stable cell lines were maintained in complete RPMI-1640 media described above without IL-3. […] To generate HER2 […] cell lines, cells were transduced with c.2264T>C (created from Bioinnovatise from pBabe-puro HER WT from Addgene (#40978)).
(§1) Cell viability assay and IC50 estimation: Cell viability was determined using the Cell Titer Glo assay (Promega) as previously described (Robichaux et al., 2018). Briefly, 2000-3000 cells per well were plated in 384-well plates (Greiner Bio-One) in technical triplicate. Cells were treated with seven different concentrations of tyrosine kinase inhibitors or vehicle alone at a final volume of 40 μL per well. After 3 days, 11 μL of Cell Titer Glo was added to each well. Plates were shaken for 15 minutes, and bioluminescence was determined using a FLUOstar OPTIMA multi-mode micro-plate reader (BMG LABTECH). Bioluminescence values were normalized to DMSO treated cells, and normalized values were plotted in GraphPad Prism using non-linear regression fit to normalized data with a variable slope. IC50 values were calculated by GraphPad Prism at 50% inhibition.

[2] = test system: CW-2 cells (HER2 L755S) xenografts; assay: CW-2 cell line xenograft tumor growth study; type: in vivo, mice; conditions: for Tukey's multiple comparisons test Summary: Poziotinib 5 mg/kg
Description: In vivo xenograft studies: CW-2 cell line xenografts were created by injecting 1×10^6 cells in 50% matrigel into 6-week-old female nu/nu nude mice. When tumors reached 350 mm^3 mice were randomized into 4 groups: 20 mg/kg afatinib, 5 mg/kg poziotinib, 30 mg/kg neratinib, or vehicle control (0.5% Methylcellulose, 2% Tween-80 in dH2O). Tumor volumes were measured three times per week. Mice received drug Monday-Friday (5 days per week), but began dosing on Wednesday allowing for a 2-day holiday after the first 3 days of dosing.

[3] = test system: HER2 exon 19 mutant Ba/F3 cell lines; assay: Cell Titer Glo cell viability, Ba/F3 cell lines expressing HER2 exon 19 mutations; type: cell-based
Description: In addition, several other HER2 exon 19 mutations including D769Y, D769N, D769H, L755S, and R678Q were tested for their sensitivity to different TKIs including poziotinib.
Cell viability of stable Ba/F3 cell lines expressing HER2 exon 19 mutations grown in IL-3 free conditions was measured for 14 days. Cell viability was determined every 3 days by the Cell Titer Glo assay (FIG. 4). […] Average IC50 values of Ba/F3 cells expressing L755S or L755P with indicated inhibitors were measured (FIG. 5C).
Cell line generation and IL-3 deprivation: Ba/F3 cell line, was cultured in complete RPMI-1640 (R8758; Sigma Life Science) media supplemented with L-glutamine, 10% heat inactivated FBS (Gibco), 1% penicillin/streptomycin (Sigma Life Science), and 10 ng/ml mouse IL-3 (R&D systems) under sterile conditions. Stable cell lines were generated by retroviral transduction of Ba/F3 cell line for 12 hours. Retroviruses were generated by transfecting pBabe-Puro based vectors into the Phoenix 293T ampho packing cell line (Orbigen) using Lipofectamine 2000 (Invitrogen). 72 hours after transduction, 2 μg/ml puromycin (Invitrogen) was added to the media. After 5 days of selection, cells were stained with FITC-HER2 (Biolegend) and sorted via FACS. Cell lines were then grown in the absence of IL-3 for 15 days and cell viability was determined every 3 days using the Cell Titer Glo assay (Progema). Resulting stable cell lines were maintained in complete RPMI-1640 media described above without IL-3. Cell line identity was confirmed by DNA fingerprinting via short tandem repeats using the PowerPlex 1.2 kit (Promega). Fingerprinting results were compared with reference fingerprints maintained by the primary source of the cell line. All cell lines were free of mycoplasma. […]
Cell viability assay and IC50 estimation: Cell viability was determined using the Cell Titer Glo assay (Promega) as previously described (Robichaux et al., 2018). […] Plates were shaken for 15 minutes, and bioluminescence was determined using a FLUOstar OPTIMA multi-mode micro-plate reader (BMG LABTECH). […]

CW-2 colorectal cells = assay: Cell viability of CW-2 cells treated with inhibitors; type: cell-based, human; conditions: various concentrations, 72 hours (FIG. 6A)
Description: A mouse study was performed with mice inoculated with CW-2 cells treated with poziotinib, afatinib, or neratinib. […] Thus, poziotinib, as well as structurally similar inhibitors, are potent inhibitors of HER2 exon 19 mutations and can be used as therapeutics to overcome de novo drug resistance.
as §1
Human cell lines: MCF10A cells were purchased from ATCC and were cultured in DMEM/F12 media supplemented with 1% penicillin/streptomycin, 5% horse serum (sigma), 20 ng/ml EGF, […] hydrocortisone, and 10 ug/ml insulin. […]

[4] = Day 10, vs. Vehicle, Afatinib 20 mg/kg, Neratinib 30 mg/kg, two-way ANOVA of FIG. 6B
[5] = Day 13, vs. Vehicle, Afatinib 20 mg/kg, Neratinib 30 mg/kg, two-way ANOVA of FIG. 6B

Cc1cc(C(=O)Nc2nc3cccc(Cl)c3n2[C@@H]2CCCCN(C(=O)/C=C/CN(C)C)C2)ccn1 [EGF-816]
inhibition of cell viability [1]: failed to inhibit cell viability

CN(C)C/C=C/C(=O)Nc1cc2c(Nc3ccc(F)c(Cl)c3)ncnc2cc1O[C@H]1CCOC1 [afatinib]
IC50 [1]: 13 nM

CS(=O)(=O)CCNCc1ccc(-c2ccc3ncnc(Nc4ccc(OCc5cccc(F)c5)c(Cl)c4)c3c2)o1 [lapatinib]
inhibition of cell viability [1]: failed to inhibit cell viability

CCOc1cc2ncc(C#N)c(Nc3ccc(OCc4ccccn4)c(Cl)c3)c2cc1NC(=O)/C=C/CN(C)C [neratinib]
Tukey's multiple comparisons test Summary [2, 4]: ns
Tukey's multiple comparisons test Summary [2, 5]: ns
Tukey's multiple comparisons test Summary ([2]; Day 15, vs. Vehicle, Afatinib 20 mg/kg, Neratinib 30 mg/kg, two-way ANOVA of FIG. 6B): ns
Tukey's multiple comparisons test Summary ([2]; Day 17, vs. Vehicle, Afatinib 20 mg/kg, Neratinib 30 mg/kg, two-way ANOVA of FIG. 6B): ns

C=CC(=O)N1CCC(Oc2cc3c(Nc4ccc(Cl)c(Cl)c4F)ncnc3cc2OC)CC1 [poziotinib, 1-[4-[4-(3,4-dichloro-2-fluoroanilino)-7-methoxyquinazolin-6-yl]oxypiperidin-1-yl]prop-2-en-1-one]
inhibition of cell viability [1]: inhibition of cell viability
IC50 [1]: 3 nM
IC50 values as compared to the other inhibitors tested ([3]; Ba/F3 cells expressing HER2 exon 19 mutations incl. L755S or L755P, 72 hours of drug treatment): lowest IC50 values
concentrations inhibiting HER2 exon 19 mutants ([3]; HER2 exon 19 mutants): low nanomolar concentrations
inhibition of growth of mutant cells ([3]; HER2 exon 19 mutations D769Y, D769N, D769H, L755S, R678Q (FIG. 3)): inhibited the growth of these mutant cells
decrease in cell viability (CW-2 colorectal cells): highest decrease in cell viability
Tukey's multiple comparisons test Summary ([2]; Day 10, vs. Afatinib (20 mg/kg)): ns
Tukey's multiple comparisons test Summary [2, 4]: ns
Tukey's multiple comparisons test Summary ([2]; Day 13, vs. Afatinib (20 mg/kg)): ns
Tukey's multiple comparisons test Summary ([2]; Day 13, vs. Neratinib (30 mg/kg), Afatinib 20 mg/kg): ns
Tukey's multiple comparisons test Summary [2, 5]: ns
Tukey's multiple comparisons test Summary ([2]; Day 15, vs. Afatinib (20 mg/kg)): ns
Tukey's multiple comparisons test Summary ([2]; Day 17, vs. Afatinib (20 mg/kg)): ns
Tumor growth ([2]; mice inoculated with CW-2 cells, 5 mg/kg (FIG. 6C)): significantly decreased
